The experiment addresses T1, UapA (Aspergillus nidulans, UniProt Q07307).
T1 construct: full-length, C-terminal GFP tag (plasmid pAN510-GFP), expressed in A. nidulans uapAΔ uapCΔ azgAΔ pabaA1 argB2; homodimer
Kind of experiment: inhibition of [3H]-xanthine uptake in germinating conidiospores. In kind it is cell-based. The source says: inhibition of [3H]-xanthine uptake in germinating conidiospores on UapA | wild-type UapA can indeed bind L-ascorbate with very low affinity, reflected in a Ki

Data on one compound can be found in paper PMC5972032, “Evolution of substrate specificity in the Nucleobase-Ascorbate Transporter (NAT) protein family” (Microbial Cell, 2018).

T1 sequence (Q07307 whole entry): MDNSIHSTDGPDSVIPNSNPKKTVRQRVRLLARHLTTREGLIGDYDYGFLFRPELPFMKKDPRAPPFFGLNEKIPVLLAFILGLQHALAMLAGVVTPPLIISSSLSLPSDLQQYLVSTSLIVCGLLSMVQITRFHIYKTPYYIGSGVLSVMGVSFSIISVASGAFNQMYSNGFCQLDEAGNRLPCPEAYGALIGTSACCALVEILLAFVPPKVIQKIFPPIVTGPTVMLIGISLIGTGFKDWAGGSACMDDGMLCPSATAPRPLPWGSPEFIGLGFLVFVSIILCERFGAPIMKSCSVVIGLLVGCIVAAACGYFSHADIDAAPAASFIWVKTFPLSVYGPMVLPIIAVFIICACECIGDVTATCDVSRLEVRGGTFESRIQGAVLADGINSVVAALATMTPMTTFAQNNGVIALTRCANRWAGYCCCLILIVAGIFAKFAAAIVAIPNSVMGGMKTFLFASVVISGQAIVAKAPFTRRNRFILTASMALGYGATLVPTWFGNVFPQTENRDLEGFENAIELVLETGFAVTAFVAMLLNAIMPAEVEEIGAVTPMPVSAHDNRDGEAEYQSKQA

One may read the Ki as the dissociation constant of the complex between target and ligand, obtained from inhibition or displacement. Read a low Ki as tighter binding. With `O=C1O[C@H]([C@@H](O)CO)C(O)=C1O` [L-ascorbate], the Ki is around 17 mM.
